Molecules are shown by their SMILES. pIC50: −log10 of the molar value. Where a name gives a salt, the structure may show the parent alone.

The target of this test is T1, human HSL (Homo sapiens, UniProt Q05469).
T1 construct: generate a full length human HSL ORF with a 3′-His6 tag; His6 (C); made in house; host or cells: High 5 insect cells (baculovirus, pFast-BAC)
T1 sequence (Q05469 1-1076): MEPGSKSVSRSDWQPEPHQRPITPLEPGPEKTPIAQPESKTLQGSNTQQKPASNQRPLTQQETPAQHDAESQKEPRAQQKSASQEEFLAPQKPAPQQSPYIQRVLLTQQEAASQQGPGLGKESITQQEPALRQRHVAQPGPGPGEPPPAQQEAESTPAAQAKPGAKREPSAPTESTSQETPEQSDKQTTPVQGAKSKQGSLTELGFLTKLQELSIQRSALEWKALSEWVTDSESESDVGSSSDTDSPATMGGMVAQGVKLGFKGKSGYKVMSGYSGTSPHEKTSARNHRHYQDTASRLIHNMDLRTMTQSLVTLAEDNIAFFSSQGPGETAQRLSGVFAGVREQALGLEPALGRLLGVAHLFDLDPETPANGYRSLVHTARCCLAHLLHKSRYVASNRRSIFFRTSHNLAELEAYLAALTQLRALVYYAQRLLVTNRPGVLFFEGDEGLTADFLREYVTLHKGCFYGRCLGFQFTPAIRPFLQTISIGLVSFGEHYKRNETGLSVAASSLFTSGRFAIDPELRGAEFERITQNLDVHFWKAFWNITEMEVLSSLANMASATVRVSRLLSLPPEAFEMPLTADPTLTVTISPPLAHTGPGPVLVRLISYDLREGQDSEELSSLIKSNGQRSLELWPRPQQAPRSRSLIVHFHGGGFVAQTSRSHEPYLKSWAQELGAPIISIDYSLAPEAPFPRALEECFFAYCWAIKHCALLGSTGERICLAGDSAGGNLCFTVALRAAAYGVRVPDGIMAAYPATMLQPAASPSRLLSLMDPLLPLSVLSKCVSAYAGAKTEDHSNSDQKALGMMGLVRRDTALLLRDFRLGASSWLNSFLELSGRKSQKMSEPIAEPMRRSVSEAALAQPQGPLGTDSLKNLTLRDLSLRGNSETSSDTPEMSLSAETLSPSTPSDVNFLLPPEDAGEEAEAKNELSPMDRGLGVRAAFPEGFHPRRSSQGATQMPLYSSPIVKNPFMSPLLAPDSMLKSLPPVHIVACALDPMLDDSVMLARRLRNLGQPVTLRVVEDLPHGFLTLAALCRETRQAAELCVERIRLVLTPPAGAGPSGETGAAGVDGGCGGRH
Description: Human Hormone-Sensitive Lipase (HSL) enzyme inhibition assay (colorimetric, DMPT substrate). The test is classed as biochemical. As to conditions: read-out: HSL hum IC50. On the procedure: Production of Human Full Length Hormone Sensitive Lipase-His^6
1) Cloning: cDNA was prepared from commercial human brain polyA+ RNA and used as a template in overlapping PCR to generate a full length human HSL ORF with a 3′-His6 tag. This full length insert was cloned into the pFast-BAC vector and the DNA-sequence of several single clones was verified. DNA from a correct full length clone with the 3′His6 tag was used to transform the E. coli strain DH10BAC. Resulting bacmid DNA was used to generate a titered baculovirus stock for protein generation. The sequence of the encoded HSL conforms to Swissprot entry Q05469, with the additional C-terminal His6-tag.
2) Protein purification: Culture: 5.5 L, High 5 cells expressing human full length HSL-His^6, 48 hr., containing 25 μM E-64. Cell count: […], 90% viable.
Cells were thawed. On ice, cells were suspended in Base Buffer containing 10% glycerol, 25 mM Tris-Cl, 300 mM NaCl, 10 mM imidazole, 10 mM 2-mercaptoethanol, 2 μg pepstatin/ml, 2 μg leupeptin/ml, 2 μg antipain/ml, pH 8.0 at 4° C. in a final volume of 475 ml with 3.75×10^7 cells/ml. […] was done at 3×30 sec., Lubrol PX was added to 0.2% final concentration followed by stirring for 15 min. at 4° C. and centrifugation at 25 k×g, 60 min., 4° C. Soluble proteins were mixed with 60 ml of pre-washed and equilibrated Ni-NTA Agarose (Qiagen 30210) followed by tumbling end-over-end, 45 min., 4° C., centrifugation 1000 rpm 5 min and letting resin settle 5 min. Supernatant was removed, the resin washed in the centrifuge vessel using 5 volumes of Base Buffer containing 0.2% Lubrol PX. Centrifugation was done again, then the supernatant discarded. The resin was poured onto a 0.8 μm membrane in a disposable filter unit (Nalge 450-0080), and washed with 5 volumes of Base Buffer containing 0.2% Lubrol PX. It was then washed with 30 volumes of Base Buffer containing 60 mM imidazole pH 7.5 at 4° C. The protein was eluted with 5 volumes of 25 mM Tris-Cl, 300 mM NaCl, 200 mM imidazole, 10 mM 2-mercaptoethanol, pH 7.5 at 4° C. by tumbling resin with buffer end-over-end, 30 min., 4° C. The resin was captured on a 0.2 μm membrane disposable filter unit (Millipore SCGP U02 RE) and the elute collected in the reservoir. The elute was concentrated using a 30 k MWCO centrifugal filter device (Sartorius Vivascience Vivacell 100, VC1022), to 20 ml. It was then dialyzed overnight at 4° C., two times against 2 L of 10% glycerol, 25 mM Tris-Cl, 300 mM NaCl, 0.2 mM EDTA, 0.2 mM DTT, pH 7.5 at 4° C. The protein was filtered using a 0.22 μm disposable filter unit (Millipore SCGP00525). The protein concentration was calculated from absorbance at 280 nm, using 280=0.67 cm-1 mg-1. Yield was 235 mg, total. The protein was stored at −80° C. Human Hormone-Sensitive Lipase (HSL) enzyme inhibition assay:
HSL enzyme activity was measured by a colorimetric assay using 2,3-dimercapto-1-propanol tributyrate (Aldrich, St. Louis, Mo.) as a substrate. Typically, 1.5 mM 2,3-dimercapto-1-propanol tributyrate (DMPT) in 100 mM MOPS, pH 7.2, 0.2 mg/ml fatty acid-free BSA was prepared by sonication at 4° C. to homogenous suspension. Test compounds (2 mM stock in DMSO) were diluted 3 fold in series in DMSO. Compound solutions were diluted 24 fold in 1.5 mM DMPT containing solution and 18 ul per well was added to 384-well microplates (Corning Costar). Twelve microliters per well of human HSL (15 ug/ml) was added and the reaction mixture was incubated at 37° C. for 20 minutes. Six microliters of 12 mM dithio-bis-(2-nitrobenzoic acid) (DTNB) in DMSO plus 1.2% SDS and 0.6% Triton X-100 were added and the mixture was incubated at room temperature for 15 minutes. Product production was monitored by reading absorbance at 405 nm on an Envision Reader (PerkinElmer Life and Analytical Sciences, Shelton, Conn.).
For `CCc1ccc(NC(=O)C2(N)CCN(S(=O)(=O)c3ccc(C)cc3)CC2)cc1` [Example 81, 4-Amino-1-(toluene-4-sulfonyl)-piperidine-4-carboxylic acid (4-ethyl-phenyl)-amide], the pIC50 – broadly, the negative decadic logarithm of the IC50, by convention in mol/L – was 6.92.

In the case of `CN(C(=O)C1(O)CCN(S(=O)(=O)CC(C)(C)C)CC1)c1ccc(OC(F)(F)F)cc1` [Example 65, 1-(2,2-Dimethyl-propane-1-sulfonyl)-4-hydroxy-piperidine-4-carboxylic acid methyl-(4-trifluoromethoxy-phenyl)-amide], the pIC50 is 6.31.

Consider `Cc1ccc(S(=O)(=O)N2CCC(O)(C(=O)Nc3ccc(OC(F)(F)F)cc3)CC2)cc1` [Example 60, 4-Hydroxy-1-(toluene-4-sulfonyl)-piperidine-4-carboxylic acid (4-trifluoromethoxy-phenyl)-amide], for which the pIC50 is 6.66.

Consider `CC(C)c1ccc(NC(=O)C2(N)CCN(C(=O)c3ccccc3Cl)CC2)cc1` [Example 124, 4-Amino-1-(2-chloro-benzoyl)-piperidine-4-carboxylic acid (4-isopropyl-phenyl)-amide], for which the pIC50 is 6.64.

For `COc1ccc(S(=O)(=O)N2CCC(O)(C(=O)Nc3ccc(C(C)C)cc3)CC2)cc1` [Example 8, 4-Hydroxy-1-(4-methoxy-benzenesulfonyl)-piperidine-4-carboxylic acid (4-isopropyl-phenyl)-amide], the pIC50 is 6.70.

For `CC(C)c1ccc(NC(=O)C2(N)CCN(S(=O)(=O)c3ccccc3Cl)CC2)cn1` [Example 101, 4-Amino-1-(2-chloro-benzenesulfonyl)-piperidine-4-carboxylic acid (6-isopropyl-pyridin-3-yl)-amide], the pIC50 is 6.72.

Turning to `CC(C)(C)c1ccc(NC(=O)C2(O)CCN(Cc3ccccc3)CC2)cc1` [Example 3, 1-Benzyl-4-hydroxy-piperidine-4-carboxylic acid (4-tert-butyl-phenyl)-amide], the pIC50 is 6.41.

Take `CC(C)c1ccc(NC(=O)C2(O)CCN(C(=O)Nc3ccc(C(F)(F)F)cc3)CC2)cc1` [Example 6, 4-Hydroxy-piperidine-1,4-dicarboxylic acid 4-[(4-isopropyl-phenyl)-amide] 1-[(4-trifluoromethyl-phenyl)-amide]]: the pIC50 is 6.68.

With `CC(C)c1ccc(NC(=O)C2(N)CCN(S(=O)(=O)c3cccc(Cl)c3)CC2)cc1` [Example 117, 4-Amino-1-(3-chloro-benzenesulfonyl)-piperidine-4-carboxylic acid (4-isopropyl-phenyl)-amide], the pIC50 was 6.96.

For `CC(C)(C)c1ccc(NC(=O)C2(O)CCN(Cc3ccccc3F)CC2)cc1` [Example 45, 1-(2-Fluoro-benzyl)-4-hydroxy-piperidine-4-carboxylic acid (4-tert-butyl-phenyl)-amide], the negative-log IC50 (pIC50) was 7.10.

With `O=C(Nc1ccc(OC(F)(F)F)cc1)C1(O)CCN(S(=O)(=O)CCC(F)(F)F)CC1` [Example 62, 4-Hydroxy-1-(3,3,3-trifluoro-propane-1-sulfonyl)-piperidine-4-carboxylic acid (4-trifluoromethoxy-phenyl)-amide], the pIC50 is 6.06.

With `CCCCc1ccc(NC(=O)C2(N)CCN(S(=O)(=O)c3ccccc3Cl)CC2)cc1` [Example 104, 4-Amino-1-(2-chloro-benzenesulfonyl)-piperidine-4-carboxylic acid (4-butyl-phenyl)-amide], the pIC50 was 7.22.

In the case of `CC(C)c1ccc(NC(=O)C2(N)CCN(C(=O)OCc3ccccc3)CC2)cc1` [Example 82, 4-Amino-4-(4-isopropyl-phenylcarbamoyl)-piperidine-1-carboxylic acid benzyl ester; hydrochloride], the negative-log IC50 (pIC50) was 6.49.

Regarding `CC(C)Oc1ccc(NC(=O)C2(O)CCN(Cc3ccc(OC(F)(F)F)cc3)CC2)cc1` [Example 14, 4-Hydroxy-1-(4-trifluoromethoxy-benzyl)-piperidine-4-carboxylic acid (4-isopropoxy-phenyl)-amide], the pIC50 is 6.22.

With `O=C(Nc1ccc(F)cc1)N1CCC(O)(C(=O)Nc2ccc(OC(F)(F)F)cc2)CC1` [Example 52, 4-Hydroxy-piperidine-1,4-dicarboxylic acid 1-[(4-fluoro-phenyl)-amide] 4-[(4-trifluoromethoxy-phenyl)-amide]], the negative-log IC50 (pIC50) is 6.02.

`CC(C)Oc1ccc(NC(=O)C2(O)CCN(S(=O)(=O)c3ccccc3Cl)CC2)cc1` [Example 13, 1-(2-Chloro-benzenesulfonyl)-4-hydroxy-piperidine-4-carboxylic acid (4-isopropoxy-phenyl)-amide]: the pIC50 is 6.72.

`CC(C)c1ccc(NC(=O)C2(N)CCN(C(=O)Nc3ccc(Cl)cc3)CC2)cc1` [Example 108, 4-Amino-piperidine-1,4-dicarboxylic acid 1-[(4-chloro-phenyl)-amide] 4-[(4-isopropyl-phenyl)-amide]; hydrochloride]: the pIC50 was 7.00.

As for `CN(C(=O)C1(O)CCN(Cc2ccccc2Cl)CC1)c1ccc(OC(F)(F)F)cc1` [Example 71, 1-(2-Chloro-benzyl)-4-hydroxy-piperidine-4-carboxylic acid methyl-(4-trifluoromethoxy-phenyl)-amide], the negative logarithm of the IC50 (pIC50) is 7.40.

As to `CN(C(=O)C1(O)CCN(S(=O)(=O)c2ccccc2C(F)(F)F)CC1)c1ccc(OC(F)(F)F)cc1` [Example 73, 4-Hydroxy-1-(2-trifluoromethyl-benzenesulfonyl)-piperidine-4-carboxylic acid methyl-(4-trifluoromethoxy-phenyl)-amide], the negative-log IC50 (pIC50) was 7.00.

Values taken from patent publication US8399676B2, “Piperidine derivatives” (Hoffman-La Roche Inc., priority 2009, dated 2013).
